Measurements taken from patent US9763979B2, “Cardioplegic preparation” (Universitat Bern, priority 2008, dated 2017).

Experiment: Experimental and clinical tests of potassium bioavailability
Conditions: in presence of xylitol and/or citric acid
Description: As compared to previous cardioplegic solutions the preparation according to the invention has a higher potassium concentration. […] By increasing thus the initial content of potassium in the cardioplegic solution, the concentration necessary to achieve the cardioplegic effect is guaranteed.

With `[Cl-].[K+]` [Potassium ions, Potassium chloride] the “bioavailability of Potassium ions” value was “reduced bioavailability”.
